Reference: patent publication US20240182531A1, “KV1.3 Blockers” (priority 2021, published 2024)
pIC50: −log10 of the molar value. “And” between values parts separate entries of the source, which are not always exact repeats. Equal entries are not always repeated. Where two headings read alike, the source gives them in different places. Where a SMILES comes first, the peptide text is derived from it. Bridges are numbered along the chain shown (N, C = ends). [ ]: non-standard residue; d: D form. Nle = CCCC[C@H](N)C(=O)O

How the values were obtained:
[1] = molecular target: T1, human Kv1.1 (Homo sapiens, UniProt Q09470); assay: cell-based; conditions: ratio of patch clamp IC50 values
T1 construct: expressed in transfected cells; host or cells: CHO
T1 sequence (Q09470 whole entry): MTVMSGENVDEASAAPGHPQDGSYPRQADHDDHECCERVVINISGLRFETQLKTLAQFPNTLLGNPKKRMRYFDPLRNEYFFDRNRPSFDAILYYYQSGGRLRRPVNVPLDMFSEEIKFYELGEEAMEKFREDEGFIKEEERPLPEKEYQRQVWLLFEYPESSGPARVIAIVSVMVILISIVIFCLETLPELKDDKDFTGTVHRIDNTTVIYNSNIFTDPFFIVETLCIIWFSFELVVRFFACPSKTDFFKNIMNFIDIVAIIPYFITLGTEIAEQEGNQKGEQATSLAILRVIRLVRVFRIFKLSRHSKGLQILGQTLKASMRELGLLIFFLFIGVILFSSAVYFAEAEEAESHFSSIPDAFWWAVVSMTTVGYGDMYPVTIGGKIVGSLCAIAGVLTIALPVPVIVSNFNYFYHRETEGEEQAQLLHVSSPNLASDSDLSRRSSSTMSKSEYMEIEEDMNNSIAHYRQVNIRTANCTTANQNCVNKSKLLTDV

[2] = molecular target: T2, human Kv1.6 (Homo sapiens, UniProt P17658); assay: cell-based; conditions: ratio of patch clamp IC50 values
T2 construct: expressed in transfected cells; host or cells: CHO
T2 sequence (P17658 whole entry): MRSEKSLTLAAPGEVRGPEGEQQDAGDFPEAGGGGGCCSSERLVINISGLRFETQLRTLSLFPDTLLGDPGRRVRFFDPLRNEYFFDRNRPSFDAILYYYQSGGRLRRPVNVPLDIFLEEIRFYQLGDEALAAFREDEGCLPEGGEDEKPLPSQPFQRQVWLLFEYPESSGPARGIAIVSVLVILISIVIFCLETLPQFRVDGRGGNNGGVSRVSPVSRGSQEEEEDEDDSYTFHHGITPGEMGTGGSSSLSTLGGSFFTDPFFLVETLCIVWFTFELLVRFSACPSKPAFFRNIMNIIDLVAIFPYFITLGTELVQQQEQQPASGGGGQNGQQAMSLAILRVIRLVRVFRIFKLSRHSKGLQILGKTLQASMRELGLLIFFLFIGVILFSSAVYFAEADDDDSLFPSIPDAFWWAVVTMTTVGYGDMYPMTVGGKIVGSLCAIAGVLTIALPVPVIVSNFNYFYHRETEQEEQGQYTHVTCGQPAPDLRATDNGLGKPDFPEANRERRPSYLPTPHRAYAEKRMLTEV

[3] = molecular target: Rat whole blood (Rattus norvegicus, UniProt P15384); type: cell-based; conditions: IL-17A release, thapsigargin, 24 Hr, at least 2 replicates
Chain of Rat whole blood (P15384 whole entry): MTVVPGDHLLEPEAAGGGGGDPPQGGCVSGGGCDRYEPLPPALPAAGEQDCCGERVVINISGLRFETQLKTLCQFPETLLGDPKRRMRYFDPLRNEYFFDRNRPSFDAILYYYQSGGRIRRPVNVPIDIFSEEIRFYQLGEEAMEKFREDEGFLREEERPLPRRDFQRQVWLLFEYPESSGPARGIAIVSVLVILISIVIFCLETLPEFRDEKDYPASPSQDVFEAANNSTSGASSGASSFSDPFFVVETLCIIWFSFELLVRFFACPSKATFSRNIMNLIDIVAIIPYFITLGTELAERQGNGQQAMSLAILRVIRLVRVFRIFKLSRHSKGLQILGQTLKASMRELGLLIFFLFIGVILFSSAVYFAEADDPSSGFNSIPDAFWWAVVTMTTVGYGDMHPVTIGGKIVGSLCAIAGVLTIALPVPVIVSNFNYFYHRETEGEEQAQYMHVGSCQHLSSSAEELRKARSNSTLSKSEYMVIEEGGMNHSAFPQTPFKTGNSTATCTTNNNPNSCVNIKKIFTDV

[4] = molecular target: T3, human Kv1.2 (Homo sapiens, UniProt P16389); assay: cell-based; conditions: ratio of patch clamp IC50 values
T3 construct: expressed in transfected cells; host or cells: CHO
T3 sequence (P16389 whole entry): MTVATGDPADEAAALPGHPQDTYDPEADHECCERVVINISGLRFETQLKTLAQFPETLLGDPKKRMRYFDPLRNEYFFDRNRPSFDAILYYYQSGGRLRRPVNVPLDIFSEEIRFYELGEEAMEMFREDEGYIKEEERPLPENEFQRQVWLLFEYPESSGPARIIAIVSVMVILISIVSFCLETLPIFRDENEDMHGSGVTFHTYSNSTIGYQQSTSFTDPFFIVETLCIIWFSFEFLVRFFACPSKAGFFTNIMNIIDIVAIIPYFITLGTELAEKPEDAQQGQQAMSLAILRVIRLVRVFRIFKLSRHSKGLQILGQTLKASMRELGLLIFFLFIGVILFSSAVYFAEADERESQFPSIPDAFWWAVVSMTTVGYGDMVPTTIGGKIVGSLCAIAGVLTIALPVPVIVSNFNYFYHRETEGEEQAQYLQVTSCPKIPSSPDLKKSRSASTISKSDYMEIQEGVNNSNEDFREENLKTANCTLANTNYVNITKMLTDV

[5] = system: Human peripheral blood mononuclear cells (PBMCs); type: cell-based; conditions: geometric mean, at least 6 replicates, Example 5b; read-out: anti-CD3 PBMC/IL-2 IC50
Procedure: Human peripheral blood mononuclear cells (PBMCs) were used to assess the effects of Kv1.3 blocker reference compounds on T-cell activation as determined by IL-2 release after stimulation with anti-CD3.
(§1) Human PBMCs were obtained from Precision for Medicine (Frederick, MD). Cells from 5 donors were used. Plate-bound anti-CD3 was used to stimulate bulk T cells in the PBMC preparations. Briefly, 96-well plates were coated with anti-CD3 antibody for app. 16 hours at 5° C., using 50 μl of a 1 μg/ml anti-CD3 solution diluted in PBS. Thereafter the plates were washed twice.
Kv1.3 blockers were subsequently diluted in medium (RPMI 1640 with Glutamax-I containing, 10% v/v Fetal Bovine Serum, 1% v/v penicillin-streptomycin Solution) and added in a volume of 50 μl. The compounds indicated in Table 8b were used at concentrations ranging from 0.3 pM to 1000 nM (half log dilutions, starting concentrations varying).
Finally, 50.000 PBMCs in the same medium were added to each well in a volume of 50 μl, giving a final volume of 100 μl per well. The plates were incubated for 20-24 hours in a 37° C./5% CO2 incubator. After centrifugation of the plates, 25 μl supernatant was transferred to IL-2 detection plates (MSD Human IL-2 Tissue Culture Kit, cat #K151AHB-2) and IL-2 was measures as described by the manufacturer (Meso Scale Discovery, Rockville, Maryland, USA).
All values derive from at least 6 replicates.

[6] = system: KLH ear inflammation model in rats; type: in vivo, rat; conditions: +/− SD
[7] = system: Human peripheral blood mononuclear cells (PBMCs); type: cell-based; conditions: geometric mean, at least 4 replicates, Example 5a; read-out: anti-CD3 PBMC/IL-2 IC50
Procedure: Human peripheral blood mononuclear cells (PBMCs) were used to assess the effects of Kv1.3 blocker reference compounds on T-cell activation as determined by IL-2 (cytokine) release after stimulation with anti-CD3.
as §1, with “2 hrs” for “app. 16 hours”, “37°” for “5°”, “μL” for “μl”, “0.5 μg/mL” for “1 μg/ml”, “1×PBS.” for “PBS.”
Kv1.3 blockers as shown in Table 8a were diluted in medium (RPMI 1640 with Glutamax-I containing 10% v/v Fetal Bovine Serum, 1% v/v penicillin-streptomycin solution) and added in a volume of 100 μL at concentrations ranging from 0.01 pM to 100 nM (tenfold dilutions). […] Finally, 1×10^5 PBMCs were added to each well in a volume of 100 μL, giving a final volume of 200 μL per well. The plates were incubated for 20-24 hours in a 37 °C/5% CO2 incubator. After centrifugation of the plates, 25 μl supernatant was transferred to IL-2 detection plates (MSD Human IL-2 Tissue Culture Kit, cat #K151AHB-2) and IL-2 was measures as described by the manufacturer (Meso Scale Discovery, Rockville, Maryland, USA).
Results are shown in Table 8a as geometric mean of IC50 values obtained from anti-CD3 stimulated human PBMC assays. All values derive from at least 4 replicates.

| Compound | Selectivity ratio Kv1.1/Kv1.3 [1] | Selectivity ratio Kv1.6/Kv1.3 [2] | pIC50 [3] | Selectivity ratio Kv1.2/Kv1.3 [4] | pIC50 [5] | % inhibition of ear thickness (AUC of Δ ear thickness 0-48 hours) ([6]; 50 nmol/kg SC 24 hrs prior to KLH ear challenge) | % inhibition of ear thickness (AUC of Δ ear thickness 0-48 hours) ([6]; 70 nmol/kg SC 24 hrs prior to KLH ear challenge) | % inhibition of ear thickness (AUC of Δ ear thickness 0-48 hours) ([6]; 100 nmol/kg SC 24 hrs prior to KLH ear challenge) | pIC50 [7] |
| --- | --- | --- | --- | --- | --- | --- | --- | --- | --- |
| H-NMDMRCSASVECKQKCLKAIGSIFGKCMNKKCKCYPRRRTA-NH2 (disulfide 6-27, 12-32, 16-34) [compound 28] | 4280 | 1472 | 9.24 | 191 | 10.22 | – | – | – | – |
| CCCC[C@H](NC(=O)[C@@H]1CCCN1)C(=O)N[C@@H](CC(=O)O)C(=O)N[C@@H](CCCC)C(=O)N[C@@H](CCCNC(=N)N)C(=O)N[C@H]1CSSC[C@@H]2NC(=O)[C@H](CCCCN)NC(=O)CNC(=O)[C@H](Cc3ccccc3)NC(=O)[C@H]([C@@H](C)CC)NC(=O)[C@H](CO)NC(=O)CNC(=O)[C@H]([C@@H](C)CC)NC(=O)[C@H](C)NC(=O)[C@H](CCCCN)NC(=O)[C@H](CC(C)C)NC(=O)[C@@H]3CSSC[C@@H](C(=O)N[C@@H](Cc4ccc(O)cc4)C(=O)N4CCC[C@H]4C(=O)N[C@@H](CCCNC(=N)N)C(N)=O)NC(=O)[C@H](CCCCN)NC(=O)[C@H](CSSC[C@H](NC(=O)[C@H](CCC(=O)O)NC(=O)[C@H](C(C)C)NC(=O)[C@H](CO)NC(=O)[C@H](C)NC(=O)[C@H](CO)NC1=O)C(=O)N[C@@H](CCCCN)C(=O)N[C@@H](CCC(N)=O)C(=O)N[C@@H](CCCCN)C(=O)N3)NC(=O)[C@H](CCCCN)NC(=O)[C@H](CCCCN)NC(=O)[C@H](CC(N)=O)NC(=O)[C@H](CCCC)NC2=O [compound 45] (H-P[Nle]D[Nle]RCSASVECKQKCLKAIGSIFGKC[Nle]NKKCKCYPR-NH2; disulfide 6-27, 12-32, 16-34) | >17100 | >17100 | 9.01 | 5362 | 10.52 | 22.2 (+/−11.1) % | 46.9 (+/−10.9) % and 27.7 (+/−11.5) % | 41.9 (+/−12.5) % | – |
| CC[C@H](C)[C@@H]1NC(=O)[C@H](C)NC(=O)[C@H](CCCCN)NC(=O)[C@H](CC(C)C)NC(=O)[C@@H]2CSSC[C@@H](C(=O)N[C@@H](Cc3ccc(O)cc3)C(=O)N3CCC[C@H]3C(=O)N[C@@H](CCCNC(=N)N)C(N)=O)NC(=O)[C@H](CCCCN)NC(=O)[C@@H]3CSSC[C@H](NC(=O)[C@H](CCC(=O)O)NC(=O)[C@H](C(C)C)NC(=O)[C@H](CO)NC(=O)[C@H](C)NC(=O)[C@H](CO)NC(=O)[C@@H](NC(=O)[C@H](CCCNC(=N)N)NC(=O)[C@H](CCSC)NC(=O)[C@H](CC(=O)O)NC(=O)[C@H](CCSC)NC(=O)[C@@H](N)CC(N)=O)CSSC[C@H](NC(=O)[C@H](CCCCN)NC(=O)CNC(=O)[C@H](Cc4ccccc4)NC(=O)[C@H](CCCNC(=N)N)NC(=O)[C@H](CO)NC(=O)CNC1=O)C(=O)N[C@@H](CCSC)C(=O)N[C@@H](CC(N)=O)C(=O)N[C@@H](CCCCN)C(=O)N[C@@H](CCCCN)C(=O)N3)C(=O)N[C@@H](CCCCN)C(=O)N[C@@H](CCC(N)=O)C(=O)N[C@@H](CCCCN)C(=O)N2 [compound 39] (H-NMDMRCSASVECKQKCLKAIGSRFGKCMNKKCKCYPR-NH2; disulfide 6-27, 12-32, 16-34) | >15000 | 963 | 8.60 | 88 | – | – | – | – | 10.00 |
| CCCC[C@@H]1NC(=O)[C@@H]2CSSC[C@H](NC(=O)[C@H](CCCNC(=N)N)NC(=O)[C@H](CCCC)NC(=O)[C@H](CC(=O)O)NC(=O)[C@H](CCCC)NC(=O)[C@@H](N)CC(N)=O)C(=O)N[C@@H](CO)C(=O)N[C@@H](C)C(=O)N[C@@H](CO)C(=O)N[C@@H](C(C)C)C(=O)N[C@@H](CCC(=O)O)C(=O)N[C@H]3CSSC[C@H](NC(=O)[C@H](CCCCN)NC(=O)[C@H](CCCCN)NC(=O)[C@H](CC(N)=O)NC1=O)C(=O)N[C@@H](CCCCN)C(=O)N[C@H](C(=O)N[C@@H](Cc1ccc(O)cc1)C(=O)N1CCC[C@H]1C(=O)N[C@@H](CCCNC(=N)N)C(N)=O)CSSC[C@H](NC(=O)[C@H](CO)NC(=O)[C@H](CCC(N)=O)NC(=O)[C@H](CCCCN)NC3=O)C(=O)N[C@@H](CC(C)C)C(=O)N[C@@H](CCCCN)C(=O)N[C@@H](C)C(=O)N[C@@H]([C@@H](C)CC)C(=O)NCC(=O)N[C@@H](CO)C(=O)N[C@@H]([C@@H](C)CC)C(=O)N[C@@H](Cc1ccccc1)C(=O)NCC(=O)N[C@@H](CCCCN)C(=O)N2 [compound 52] (H-N[Nle]D[Nle]RCSASVECKQSCLKAIGSIFGKC[Nle]NKKCKCYPR-NH2; disulfide 6-27, 12-32, 16-34) | >8200 | >8200 | 9.20 | >8200 | 10.15 | – | – | – | – |
| CC[C@H](C)[C@@H]1NC(=O)[C@H](C)NC(=O)[C@H](CCCCN)NC(=O)[C@H](CC(C)C)NC(=O)[C@@H]2CSSC[C@@H](C(=O)N[C@@H](Cc3ccc(O)cc3)C(=O)N3CCC[C@H]3C(=O)N[C@@H](CCCNC(=N)N)C(N)=O)NC(=O)[C@H](CCCCN)NC(=O)[C@@H]3CSSC[C@H](NC(=O)[C@H](CCC(=O)O)NC(=O)[C@H](C(C)C)NC(=O)[C@H](CO)NC(=O)[C@H](C)NC(=O)[C@H](CO)NC(=O)[C@@H](NC(=O)[C@H](CCCNC(=N)N)NC(=O)[C@H](CCSC)NC(=O)[C@H](CC(=O)O)NC(=O)[C@H](CCSC)NC(=O)[C@@H](N)CC(N)=O)CSSC[C@H](NC(=O)[C@H](CCCCN)NC(=O)CNC(=O)[C@H](Cc4ccccc4)NC(=O)[C@H]([C@@H](C)CC)NC(=O)[C@H](CO)NC(=O)CNC1=O)C(=O)N[C@@H](CCSC)C(=O)N[C@@H](CC(N)=O)C(=O)N[C@@H](CCCCN)C(=O)N[C@@H](CCCCN)C(=O)N3)C(=O)N[C@@H](CCCCN)C(=O)N[C@@H](C(C)C)C(=O)N[C@@H](CCCCN)C(=O)N2 [compound 22] (H-NMDMRCSASVECKVKCLKAIGSIFGKCMNKKCKCYPR-NH2; disulfide 6-27, 12-32, 16-34) | >7200 | 2182 | 9.06 | 159 | – | – | – | – | 9.40 |
| CC[C@H](C)[C@@H]1NC(=O)[C@H](C)NC(=O)[C@H](CCCCN)NC(=O)[C@H](CC(C)C)NC(=O)[C@@H]2CSSC[C@@H](C(=O)N[C@@H](Cc3ccc(O)cc3)C(=O)N3CCC[C@H]3C(=O)N[C@@H](CCCNC(=N)N)C(=O)O)NC(=O)[C@H](CCCCN)NC(=O)[C@@H]3CSSC[C@H](NC(=O)[C@H](CCC(=O)O)NC(=O)[C@H](C(C)C)NC(=O)[C@H](CO)NC(=O)[C@H](C)NC(=O)[C@H](CO)NC(=O)[C@@H](NC(=O)[C@H](CCCNC(=N)N)NC(=O)[C@H](CCSC)NC(=O)[C@H](CC(=O)O)NC(=O)[C@H](CCSC)NC(=O)[C@@H](N)CCC(N)=O)CSSC[C@H](NC(=O)[C@H](CCCCN)NC(=O)CNC(=O)[C@H](Cc4ccccc4)NC(=O)[C@H]([C@@H](C)CC)NC(=O)[C@H](CO)NC(=O)CNC1=O)C(=O)N[C@@H](CCSC)C(=O)N[C@@H](CC(N)=O)C(=O)N[C@@H](CCCCN)C(=O)N[C@@H](CCCCN)C(=O)N3)C(=O)N[C@@H](CCCCN)C(=O)N[C@@H](CCC(N)=O)C(=O)N[C@@H](CCCCN)C(=O)N2 [compound 15] (H-QMDMRCSASVECKQKCLKAIGSIFGKCMNKKCKCYPR-OH; disulfide 6-27, 12-32, 16-34) | >7900 | >7900 | 9.77 | 1364 | 10.05 | – | – | – | – |
